# Test results taken from ChEMBL document CHEMBL3885881, “DrugMatrix”.
# Organism: Rattus norvegicus
# Assay: DrugMatrix - Regimen: Daily Repeat
# Format: toxicity, organism-based, Sprague-Dawley
# Set-up: regimen Daily Repeat, gender Male, age 6-8 weeks
# Conditions: in vivo, iv, vehicle 100 % SALINE; for ABSOLUTE BASOPHIL / ABSOLUTE EOSINOPHIL / ABSOLUTE LYMPHOCYTE / ABSOLUTE MONOCYTE / ABSOLUTE SEGMENTED NEUTROPHIL / BASOPHIL / EOSINOPHIL / ERYTHROCYTE COUNT / HEMATOCRIT / HEMOGLOBIN / LEUKOCYTE COUNT / LYMPHOCYTE / MEAN CORPUSCULAR HEMOGLOBIN / MEAN CORPUSCULAR HEMOGLOBIN CONCENTRATION / MEAN CORPUSCULAR VOLUME / MONOCYTE / NEUTROPHIL / NUCLEATED RED BLOOD CELLS / PLATELET COUNT: tissue Blood; for ALANINE AMINOTRANSFERASE / ALBUMIN / ALKALINE PHOSPHATASE / ASPARTATE AMINOTRANSFERASE / BLOOD UREA NITROGEN / CARBON DIOXIDE / CHLORIDE / CHOLESTEROL / CREATINE PHOSPHOKINASE / CREATININE / GLUCOSE / LACTATE DEHYDROGENASE / LIPASE / PHOSPHORUS / POTASSIUM / SODIUM / TOTAL BILIRUBIN / TOTAL PROTEIN / URIC ACID: tissue Plasma
# [1] = 0 mg/kg, 72 h, dose level Control, time 3 day
# [2] = 0 mg/kg, 120 h, dose level Control, time 5 day
# [3] = […], 72 h, dose 0.24 mg/Kg, dose level Low, time 3 day
# [4] = […], 72 h, dose 2.5 mg/Kg, dose level High, time 3 day
compound,measurement,setting,value
CC[C@@]1(O)C(=O)OCc2c1cc1n(c2=O)Cc2cc3ccccc3nc2-1 [CAMPTOTHECIN],ABSOLUTE BASOPHIL,[1],0 CELLS/uL
same,ABSOLUTE EOSINOPHIL,[1],21.67 CELLS/uL
same,ABSOLUTE LYMPHOCYTE,[1],10193.67 CELLS/uL
same,ABSOLUTE MONOCYTE,[1],165.83 CELLS/uL
same,ABSOLUTE SEGMENTED NEUTROPHIL,[1],702.17 CELLS/uL
same,BASOPHIL,[1],0%
same,EOSINOPHIL,[1],0.17%
same,ERYTHROCYTE COUNT,[1],5.39 x10E6/uL
same,HEMATOCRIT,[1],34.62%
same,HEMOGLOBIN,[1],13.8 G/DL
same,LEUKOCYTE COUNT,[1],11.08 x10E3/uL
same,LYMPHOCYTE,[1],91.83%
same,MEAN CORPUSCULAR HEMOGLOBIN,[1],25.68 pg
same,MEAN CORPUSCULAR HEMOGLOBIN CONCENTRATION,[1],39.9 G/DL
same,MEAN CORPUSCULAR VOLUME,[1],64.37 fL
same,MONOCYTE,[1],1.5%
same,NEUTROPHIL,[1],6.5%
same,NUCLEATED RED BLOOD CELLS,[1],0 /100WBC
same,PLATELET COUNT,[1],1202.83 x10E3/uL
same,ALANINE AMINOTRANSFERASE,[1],55.5 u/L
same,ALBUMIN,[1],4.22 G/DL
same,ALKALINE PHOSPHATASE,[1],406.83 u/L
same,ASPARTATE AMINOTRANSFERASE,[1],101.5 u/L
same,BLOOD UREA NITROGEN,[1],13.5 mg/dL
same,CARBON DIOXIDE,[1],30.33 mmol/L
same,CHLORIDE,[1],102.17 MEQ/L
same,CHOLESTEROL,[1],63.67 mg/dL
same,CREATINE PHOSPHOKINASE,[1],732.67 u/L
same,CREATININE,[1],0.2 mg/dL
same,GLUCOSE,[1],157 mg/dL
same,LACTATE DEHYDROGENASE,[1],442.5 u/L
same,LIPASE,[1],10.83 u/L
same,PHOSPHORUS,[1],12.68 mg/dL
same,POTASSIUM,[1],5.67 MEQ/L
same,SODIUM,[1],144 MEQ/L
same,TOTAL BILIRUBIN,[1],0.15 mg/dL
same,TOTAL PROTEIN,[1],6.02 G/DL
same,URIC ACID,[1],1.55 mg/dL
same,ABSOLUTE BASOPHIL,[2],0 CELLS/uL
same,ABSOLUTE EOSINOPHIL,[2],17 CELLS/uL
same,ABSOLUTE LYMPHOCYTE,[2],11849.17 CELLS/uL
same,ABSOLUTE MONOCYTE,[2],69.83 CELLS/uL
same,ABSOLUTE SEGMENTED NEUTROPHIL,[2],730.67 CELLS/uL
same,BASOPHIL,[2],0%
same,EOSINOPHIL,[2],0.17%
same,ERYTHROCYTE COUNT,[2],5.93 x10E6/uL
same,HEMATOCRIT,[2],37.42%
same,HEMOGLOBIN,[2],14.4 G/DL
same,LEUKOCYTE COUNT,[2],12.67 x10E3/uL
same,LYMPHOCYTE,[2],93.17%
same,MEAN CORPUSCULAR HEMOGLOBIN,[2],24.32 pg
same,MEAN CORPUSCULAR HEMOGLOBIN CONCENTRATION,[2],38.5 G/DL
same,MEAN CORPUSCULAR VOLUME,[2],63.08 fL
same,MONOCYTE,[2],0.5%
same,NEUTROPHIL,[2],6.17%
same,NUCLEATED RED BLOOD CELLS,[2],0 /100WBC
same,PLATELET COUNT,[2],1170.5 x10E3/uL
same,ALANINE AMINOTRANSFERASE,[2],51 u/L
same,ALBUMIN,[2],4.12 G/DL
same,ALKALINE PHOSPHATASE,[2],392.67 u/L
same,ASPARTATE AMINOTRANSFERASE,[2],81.67 u/L
same,BLOOD UREA NITROGEN,[2],16.17 mg/dL
same,CARBON DIOXIDE,[2],30.67 mmol/L
same,CHLORIDE,[2],100.5 MEQ/L
same,CHOLESTEROL,[2],64.83 mg/dL
same,CREATINE PHOSPHOKINASE,[2],242.67 u/L
same,CREATININE,[2],0.2 mg/dL
same,GLUCOSE,[2],186.83 mg/dL
same,LACTATE DEHYDROGENASE,[2],188 u/L
same,LIPASE,[2],10.83 u/L
same,PHOSPHORUS,[2],11.67 mg/dL
same,POTASSIUM,[2],5.51 MEQ/L
same,SODIUM,[2],142.55 MEQ/L
same,TOTAL BILIRUBIN,[2],0.22 mg/dL
same,TOTAL PROTEIN,[2],6.08 G/DL
same,URIC ACID,[2],1.85 mg/dL
same,ABSOLUTE BASOPHIL,[3],0 CELLS/uL
same,ABSOLUTE EOSINOPHIL,[3],41.67 CELLS/uL
same,ABSOLUTE LYMPHOCYTE,[3],12074 CELLS/uL
same,ABSOLUTE MONOCYTE,[3],83.33 CELLS/uL
same,ABSOLUTE SEGMENTED NEUTROPHIL,[3],834.33 CELLS/uL
same,BASOPHIL,[3],0%
same,EOSINOPHIL,[3],0.33%
same,ERYTHROCYTE COUNT,[3],5.45 x10E6/uL
same,HEMATOCRIT,[3],34.8%
same,HEMOGLOBIN,[3],13.63 G/DL
same,LEUKOCYTE COUNT,[3],13.03 x10E3/uL
same,LYMPHOCYTE,[3],92.67%
same,MEAN CORPUSCULAR HEMOGLOBIN,[3],25.13 pg
same,MEAN CORPUSCULAR HEMOGLOBIN CONCENTRATION,[3],39.23 G/DL
same,MEAN CORPUSCULAR VOLUME,[3],63.97 fL
same,MONOCYTE,[3],0.67%
same,NEUTROPHIL,[3],6.33%
same,NUCLEATED RED BLOOD CELLS,[3],0 /100WBC
same,PLATELET COUNT,[3],732.67 x10E3/uL
same,ABSOLUTE BASOPHIL,[4],0 CELLS/uL
same,ABSOLUTE EOSINOPHIL,[4],0 CELLS/uL
same,ABSOLUTE LYMPHOCYTE,[4],9985 CELLS/uL
same,ABSOLUTE MONOCYTE,[4],46 CELLS/uL
same,ABSOLUTE SEGMENTED NEUTROPHIL,[4],602.33 CELLS/uL
same,BASOPHIL,[4],0%
same,EOSINOPHIL,[4],0%
same,ERYTHROCYTE COUNT,[4],5.09 x10E6/uL
same,HEMATOCRIT,[4],32.33%
same,HEMOGLOBIN,[4],13.2 G/DL
same,LEUKOCYTE COUNT,[4],10.63 x10E3/uL
same,LYMPHOCYTE,[4],94%
same,MEAN CORPUSCULAR HEMOGLOBIN,[4],25.93 pg
same,MEAN CORPUSCULAR HEMOGLOBIN CONCENTRATION,[4],40.87 G/DL
same,MEAN CORPUSCULAR VOLUME,[4],63.53 fL
same,MONOCYTE,[4],0.33%
same,NEUTROPHIL,[4],5.67%
same,NUCLEATED RED BLOOD CELLS,[4],0 /100WBC
same,PLATELET COUNT,[4],1247.67 x10E3/uL
